Results as given in patent US7163919B2, “Anticancer composition” (priority 2002, dated 2007).

Test: MTT cellular viability assay, 293
Assay type: cell-based
Conditions: human, 293 cells (human kidney epithelial cell line, ATCC CRL-1573), Example 7, FIG. 5, normal cell line 293

Q: For `CC(=O)O[C@H]1C(=O)[C@@]2(C)[C@H]([C@H](OC(=O)c3ccccc3)[C@]3(O)C[C@H](OC(=O)[C@H](O)[C@@H](NC(=O)c4ccccc4)c4ccccc4)C(C)=C1C3(C)C)[C@]1(OC(C)=O)CO[C@@H]1C[C@@H]2O` [TAXOL], which viability at 24 h is on record?
A: Its viability at 24 h is 20 to 25%.
